Data reported in patent US20080070942A1, “PRAZOLE DERIVATIVES AND SALTS THEREOF AND USE OF SAME” (JIANGSU HANSEN PHARMACEUTICAL CO., LTD., priority 2004, published 2008).
Marks after values point to notes of the source that are not given here.

Assays:
[1] = tested on: gastric ulcer model induced by anhydrous ethanol in rats; test: Gastric ulcer model induced by anhydrous ethanol in rats; format: in vivo, Wistar rat; parameters: Ulcer area: unit not given beside the values; details: for ulcer areas, effect in words: anhydrous ethanol ulcer
Protocol: Wistar rat, weight: 180-220 g, male, obtained from Institute of Zoology, Chinese Academy of Medical Sciences. Compound (I) and Compound (II) of the present invention and sodium rabeprazole, provided by Jiangsu Hansen Pharmaceutical Co., Ltd. The required concentration is prepared with distilled water and the volume for administration of drug is 10 ml/kg. Methods: 40-hour fasting rats were randomly divided into groups and treated with different doses of sodium rabeprazole, compound (I), compound (II) and distilled water (as control) by gastric perfusion, respectively. After 0.5 hour, each rat was administered with 1 ml anhydrous ethanol and then rats were sacrificed 1 hour later. The stomachs were taken out and injected with 10 ml fix solution. After fixed in 3% formaldehyde solution, the stomachs were dissected and the ulcer areas were measured. The significance test was made by t-programme.

[2] = tested on: ulcer model induced by indomethacin in rats; test: Gastric ulcer model induced by indomethacin in rats; format: in vivo, Wistar rats
Protocol: Wistar rats, weight: 180-220 g, same number of male and female, provided by Institute of Zoology, Chinese Academy of Medical Sciences. (Certification of Qualification of Animal: scxk Beijing 2000-0006) 0.5% methylcellulose sodium: 2 g/L NaHCO3 is contained and pH value is adjusted to 9.0 with NaOH. Preparation: The drug was porphyrized and diluted with 0.5% methylcellulose sodium to the required concentration. It must be used up in 30 minutes. Methods: Sixty 48-hour fasting rats were divided into six groups and gastric-perfused with different doses of compound (II), sodium rabeprazole and 0.5% methylcellulose sodium (as control), respectively. After 0.5 hour, 20 mg/kg indomethacin was injected into the abdominal cavities. Six hours later, rats were sacrificed by cervical dislocation and the stomachs were taken out. After injected with 10 ml water, stomachs were then fixed in 3% formaldehyde solution. The hemorrhagic spots were counted. A significance test was carried out by t-programme.

[3] = tested on: gastric ulcer model induced by acetic acid in rats; test: Chronic gastric ulcer model induced by acetic acid in rats; format: in vivo; details: x ± s
Protocol: Methods: Abdominal cavities of fasting rats were cut under the anaesthesia of sodium pentobarbital and gently stretched the stomachs. The glandular stomachs near pylons were injected with 20 μl 30% acetic acid and then the abdominal cavities were re-closed. At the day the operation finished, rats were randomly divided into groups and started to be administered with drugs of 10 ml/kg once a day for 10 continuous days. Rats were then sacrificed in the following day when the last drug was administered, and stomachs were taken out and were injected with 10 ml water, and then were put into 3% formaldehyde solution to be fixed for 30 minutes. The stomachs were dissected along their greater curvatures and stretched on a glass plate and the ulcer areas were measured. The significance test was made by t-programme.

[4] = tested on: ulcer rat models induced by pylori ligation; test: Ulcer model induced by pylori ligation in rats; format: in vivo
Protocol: Methods: Sixty 40 hour-fasting rats were divided into 6 groups according to Table 2. A pylori ligation operation was carried out under the anaesthesia of ether. […] The stomachs were dissected and the number of gastric ulcers was counted. The result was tested by a significance test of t-programme.

[5] = tested on: gastric acid secretion model induced by pylorus ligation in rats; test: Effect on gastric acid secretion model induced by pylorus ligation in rats; format: in vivo, Wistar rat; details: pylorus-ligated rats, 5 hours after operation
Protocol: Wistar rat, weight 180-220 g, male, obtained from Institute of Zoology, Chinese Academy of Medical Sciences. Sodium rabeprazole, compound (II) of the present invention and tenatoprazole, provided by Jiangsu Hansen Pharmaceutical Co., Ltd. Added 1 drop of Tween-80 as a solubilizing assistant and prepared the required concentrations with distilled water. Methods: 48-hour fasting rats were divided into groups randomly. Pylon ligation was carried out under ether anaesthesia. […] The rats were sacrificed at 5 hours after the operation and the gastric juice was collected and measured. The content of HCl in gastric juice is determined by titration with 0.1 mol/L NaOH and the significance test was made by t-programme.

in vivo = details: dog, 5 mg/kg
Protocol: Methods: Six healthy male beagle dogs with weight 5.5˜6.7 kg were randomly divided into three groups for triple cross over administration. They were perfused with rabeprazole, tenatoprazole and compound (II) respectively after one-night fasting. The dose of each drug was 5 mg/kg. Each dog was fed with 50 ml water by gastric perfusion after administration of the drug. 2 ml blood was taken respectively from forelimb saphenous vein at 0.25, 0.5, 1, 2, 3, 4, 5, 6, 7, 8, 10, 12 hours after tenatoprazole was administered, at 5, 10, 20, 30, 40, 50, 60, 75, 90, 120, 180 minutes after rabeprazole was administered, and at 1, 2, 3, 3.5, 4, 4.5, 5, 6, 7, 8, 10, 12 hours after compound (II) was administered, and then put each blood sample in each test tube treated with EDTA, then centrifuging for 10 min at 3500 rpm. The upper plasma was removed from the test tube into another test tube containing 50 μl 2% NaOH solution and reserved at −20[…]. The plasma drug concentration was determined by HPLC. Cross-over administration to dogs was performed one week later.
The calculation method for pharmacokinetic parameters: compartment model is estimated by software DAS1.0. […] T½=0.693/λz, Tmax and Cmax are are measured values.

[6] = 3 mg/kg by gastric perfusion 0.5 hour before 1 ml anhydrous ethanol
[7] = 10 mg/kg by gastric perfusion 0.5 hour before 1 ml anhydrous ethanol
[8] = 20 μmol/kg once a day for 10 days
[9] = 60 μmol/kg once a day for 10 days
[10] = 6.7 μmol/kg through the duodenum
[11] = 20.0 μmol/kg through the duodenum

Structure (SMILES)	Ulcer area [1, 6]	Ulcer area [1, 7]	ulcer areas, effect in words [1]	Ulcer area [3, 8] [mm^2]	Ulcer area [3, 9]	Amount of gastric acid [5, 10] [mmol/stomach]	Amount of gastric juice [5, 10] [ml/stomach]	Amount of gastric acid [5, 11] [mmol/stomach]	Amount of gastric juice [5, 11] [ml/stomach]	further results
COCCCOc1ccnc(C[S+]([O-])c2nc3ccccc3[nH]2)c1C (stereo not drawn) [Sodium Rabeprazole]	26.4 ± 20.6	11.1 ± 2.7	reduced	6.2 ± 3.5	4.8 ± 3.1** mm^2	0.25 ± 0.10	4.0 ± 0.7	0.17 ± 0.08	3.7 ± 0.8	No. of ulcers ([2]; 40 μmol/kg gastric perfusion, indomethacin 20 mg/kg, x ± s): 3.1 ± 4.6; Inhibition rate ([2]; 40 μmol/kg, indomethacin ulcer): 72.3%; hemorrhagic spots on gastric mucosal induced by indomethacin, effect in words ([2]; gastric perfusion): lower than that of compound (II); No. of ulcers ([4]; 40 μmol/kg through duodenum, pylori ligation, 18 hours, x ± s): 8.9 ± 14.7; Inhibition rate ([4]; 40 μmol/kg, pylori ligation ulcer): 63.2%; ulcers in the rats, effect in words ([4]; pylori ligation ulcer): essentially same function
COc1ccc2[nH]c([S+]([O-])Cc3ncc(C)c(OC)c3C)nc2n1 (stereo not drawn) [Tenatoprazole, tenatoprazole]	–	–	–	7.6 ± 3.6	5.8 ± 3.6* mm^2	0.16 ± 0.06	2.8 ± 0.7	0.14 ± 0.03	2.8 ± 0.5	AUC (in vivo; male, beagle, po, AUC): 18000 ng·h/mL; AUC (in vivo; male, beagle, po, AUC^12): 16900 ng·h/mL; Cmax (in vivo; male, beagle, po, Cmax): 4280 ng/mL; MRT (in vivo; male, beagle, po, MRT): 5.4 h; half-life (in vivo; male, beagle, po, T1/2): 3.74 h
COCCCOc1ccnc(C[S+]([O-])c2nc3cc(OC(F)F)ccc3[n-]2)c1C.[Na+] (stereo not drawn) [Compound (I)]	12.1 ± 18.1	5.5 ± 9.9	more significant effect	–	–	–	–	–	–	–
COCCCOc1ccnc(C[S+]([O-])c2nc3ccccc3[nH]2)c1C (stereo not drawn) [rabeprazole]	–	–	–	–	–	–	–	–	–	half life (in vivo): less than half hour
